Experimental data taken from patent US11980620B2, “Compounds and methods for treatment of Diamond Blackfan anemia” (THE CHILDREN'S MEDICAL CENTER CORPORATION, priority 2017, dated 2024).

Key:
[1] = tested on: CD34-5F progenitors with ATG5 knockdown; assay: Erythroid differentiation of CD34-5F cells transduced with shRNAs for ATG5; format: cell-based, human; conditions: SMER28 10 μM; p=0.005
Experimental: (§1) (FIG. 13A) Induction of autophagy by SMER28 (40 μM) monitored by protein levels of p62, LC3-I, and LC3-II after 24 hours. Cells were also treated with 5-FU (100 nM) to induce autophagy, or inhibitor of transcription actinomycin D (ActD; 100 nM). (FIG. 13B) Induction of autophagy by SMER28 (40 μM) monitored by protein levels of p62, LC3-I, and LC3-II after 24 hours treatment with or without lysosomal blockade with bafilomycin A (200 nM for 4 hours). Untreated samples are shown at higher exposure, to capture dynamic changes in the LC3-II levels. Rapamycin (200 nM) is a positive control. LC3-II levels relative to GAPDH are quantitated on the right. (FIG. 13C) Erythroid differentiation of CD34-5F cells transduced with shRNAs for luciferase (LUC) or ATG5±SMER28. Representative flow plots and quantitation showing the number of erythroid cells induced by SMER28 (10 μM) normalized to DMSO. 2 control luciferase shRNAs and 2 ATG5 shRNAs are included (knockdown efficiency in hematopoietic cells of 58% and 50%, respectively), each with 2 independent lines; p=0.005, 3 independent experiments. (FIG. 13D) Atg5 deficiency causes anemia in zebrafish. […] Representative images (left), and quantitation (right) with embryos grouped by high, medium, and low levels of benzidine staining. […]

[2] = tested on: rps29+/- zebrafish with atg5 knockdown; assay: atg5 morpholino knockdown in rps29+/- zebrafish, hemoglobin staining; format: in vivo; conditions: 1.6 ng atg5 morpholino; SMER28 1 μM
Experimental: FIGS. 11A-11C show effect of SMER28 on CD34+ progenitors. (FIG. 11A) Protein levels of LC3-I and LC3-II in control and SMER28 treated mice. GADPH is used as a loading control. […] (FIG. 11C) Atg5 morpholino treatment of rps29^+/− zebrafish.
as §1, with “DMSO.” for “DMSO. 2 control luciferase shRNAs and 2 ATG5 shRNAs are included (knockdown efficiency in hematopoietic cells of 58% and 50%, respectively), each with 2 independent lines; p=0.005, 3 independent experiments. (FIG. 13D) Atg5 deficiency causes anemia in zebrafish.”

[3] = tested on: CD34-5F or CB progenitors; assay: Output of mature RBCs at end of stage III of erythroid culture; format: cell-based, human
Experimental: (FIG. 12A) Erythroid differentiation of control and DBA CD34-5F cells treated with DMSO vehicle or SMER28 (10 μM) during the initial CD34^+ progenitor phase (day 0-4 of differentiation), or stage I of erythroid culture (day 4-9 of differentiation). Percent of erythroid cells after stage I of differentiation is indicated in top left for each condition, and quantitated in (FIG. 12B). Data are shown as mean f s.e.m. of 4 independent experiments, with 2 control and 4 DBA iPSCs. (FIG. 12C) Same as (FIG. 12A) for CB CD34+ cells transduced with shRPS19 hairpins. GFP^+ RPS19^sh and GFP^− control cells were quantitated separately. […] (FIG. 12D) RBC pellets at the end of stage III initiated with equal numbers of CD34-5F or CB progenitors. SMER28 was added at […]. (FIG. 12E) May-Grunwald-Giemsa stain of erythroid cells from CB CD34^+ at end of stage III. Arrows indicate enucleated RBCs, which are quantitated by flow cytometry. (FIG. 12F) Quantitation of the enucleation efficiency (left) of GLYA^+ cells. Data in FIGS. 12E-12F represents 3 independent experiments. For all panels, *p<0.05, **p<0.01.
Erythroblasts proliferate rapidly to give rise to terminally differentiated RBCs. […]

SMILES: C=CCNc1ncnc2ccc(Br)cc12 [SMER28, 6-Bromo-N-2-propenyl-4-quinazolinam]
- effect of SMER28 on erythroid differentiation after knockdown of ATG5 [1]: significantly reduced
- rescue of erythropoiesis after atg5 knockdown [2]: abolished
- output of RBCs from erythroblasts ([3]; treatment of CD34+ progenitors only): comparable to vehicle controls
- output of iPSC- and CB-derived mature RBCs ([3]; treatment of erythroblasts during stages I-III): enhanced
